Reference: ChEMBL document CHEMBL4359904, “Structural tuning of acridones for developing anticancer agents targeting dihydrofolate reductase” (Bioorg Med Chem Lett, 2019)
Calls of active or inactive are those of the source. The calls are words filed in the database; no cut-off is given here.

How the values were obtained:
CCRF-CEM = assay: Growth inhibition of human CCRF-CEM cells at 10^-5 M incubated for 48 hrs by sulforhodamine B assay relative to control; format: functional; conditions: read-out: GI
[1] = biological target: T1, Dihydrofolate reductase (Homo sapiens) (UniProt P00374); assay: Binding affinity to human dihydrofolate reductase at 5 uM assessed as decrease in absorption band by UV-visible spectroscopic analysis
T1 sequence (whole entry): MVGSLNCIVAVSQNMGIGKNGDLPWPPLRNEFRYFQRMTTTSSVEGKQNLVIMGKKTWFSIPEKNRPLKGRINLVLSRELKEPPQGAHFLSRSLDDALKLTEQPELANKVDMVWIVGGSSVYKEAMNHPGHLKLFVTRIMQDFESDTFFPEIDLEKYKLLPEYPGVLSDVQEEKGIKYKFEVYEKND

RXF 393 = assay: Growth inhibition of human RXF393 cells incubated for 48 hrs by sulforhodamine B assay; format: functional; conditions: RXF 393, 48 h
SNB-75 = assay: Growth inhibition of human SNB75 cells incubated for 48 hrs by sulforhodamine B assay; format: functional; conditions: SNB-75, 48 h
Hs-578T = assay: Growth inhibition of human Hs578T cells incubated for 48 hrs by sulforhodamine B assay; format: functional
U-251 = assay: Growth inhibition of human U251 cells incubated for 48 hrs by sulforhodamine B assay; format: functional; conditions: U-251, 48 h
NCI-H322M = assay: Growth inhibition of human NCI-H322M cells incubated for 48 hrs by sulforhodamine B assay; format: functional
ACHN = assay: Growth inhibition of human ACHN cells incubated for 48 hrs by sulforhodamine B assay; format: functional
NCI-H522 = assay: Growth inhibition of human NCI-H522 cells incubated for 48 hrs by sulforhodamine B assay; format: functional; conditions: NCI-H522, 48 h
IGROV-1 = assay: Growth inhibition of human IGROV1 cells at 10^-5 M incubated for 48 hrs by sulforhodamine B assay relative to control; format: functional; conditions: IGROV-1, 48 h, read-out: GI
RPMI-8226 = assay: Growth inhibition of human RPMI8226 cells incubated for 48 hrs by sulforhodamine B assay; format: functional; conditions: RPMI-8226, 48 h
SN12C = assay: Growth inhibition of human SN12C cells incubated for 48 hrs by sulforhodamine B assay; format: functional
MDA-MB-468 = assay: Growth inhibition of human MDA-MB-468 cells incubated for 48 hrs by sulforhodamine B assay; format: functional; conditions: MDA-MB-468, 48 h
BT-549 = assay: Growth inhibition of human BT549 cells incubated for 48 hrs by sulforhodamine B assay; format: functional; conditions: BT-549, 48 h
DU-145 = assay: Growth inhibition of human DU145 cells incubated for 48 hrs by sulforhodamine B assay; format: functional; conditions: DU-145, 48 h
UO-31 = assay: Growth inhibition of human UO31 cells at 10^-5 M incubated for 48 hrs by sulforhodamine B assay relative to control; format: functional; conditions: UO-31, 48 h, read-out: GI
HCC 2998 = assay: Growth inhibition of human HCC2998 cells incubated for 48 hrs by sulforhodamine B assay; format: functional; conditions: HCC 2998, 48 h
SF-295 = assay: Growth inhibition of human SF295 cells incubated for 48 hrs by sulforhodamine B assay; format: functional; conditions: SF-295, 48 h
K562 = assay: Growth inhibition of human K562 cells incubated for 48 hrs by sulforhodamine B assay; format: functional; conditions: K562, 48 h
SK-MEL-2 = assay: Growth inhibition of human SK-MEL-2 cells incubated for 48 hrs by sulforhodamine B assay; format: functional; conditions: SK-MEL-2, 48 h
COLO 205 = assay: Growth inhibition of human COLO205 cells incubated for 48 hrs by sulforhodamine B assay; format: functional; conditions: COLO 205, 48 h
MCF7 = assay: Growth inhibition of human MCF7 cells at 10^-5 M incubated for 48 hrs by sulforhodamine B assay relative to control; format: functional; conditions: MCF7, 48 h, read-out: GI
A498 = assay: Growth inhibition of human A498 cells incubated for 48 hrs by sulforhodamine B assay; format: functional; conditions: A498, 48 h
M14 = assay: Growth inhibition of human M14 cells incubated for 48 hrs by sulforhodamine B assay; format: functional; conditions: M14, 48 h
MOLT-4 = assay: Growth inhibition of human MOLT4 cells at 10^-5 M incubated for 48 hrs by sulforhodamine B assay relative to control; format: functional; conditions: MOLT-4, 48 h, read-out: GI
T47D = assay: Growth inhibition of human T47D cells incubated for 48 hrs by sulforhodamine B assay; format: functional
OVCAR-4 = assay: Growth inhibition of human OVCAR4 cells incubated for 48 hrs by sulforhodamine B assay; format: functional; conditions: OVCAR-4, 48 h
SF-539 = assay: Growth inhibition of human SF539 cells incubated for 48 hrs by sulforhodamine B assay; format: functional; conditions: SF-539, 48 h
C6 [2] = assay: Cell cycle arrest in rat C6 cells assessed as decrease in cell population at G2/M phase measured after 24 hrs by propidium iodide staining based flow cytometry analysis; format: functional
C6 [3] = assay: Cell cycle arrest in rat C6 cells assessed as cell population at G0/G1 phase measured after 24 hrs by propidium iodide staining based flow cytometry analysis; format: functional
LOX IMVI = assay: Growth inhibition of human LOXIMVI cells incubated for 48 hrs by sulforhodamine B assay; format: functional
[4] = read-out: pLC50 (the source's name) (converted)

O=C(OC[C@@H]1CO1)c1cccc2c(=O)c3ccccc3[nH]c12
inhibition of growth at 10 µM (CCRF-CEM): 93% | Activity [1]: Active | GI50 (RXF 393): 1.38 µM | CC50 (RXF 393; [4]): 5.75 µM | TGI (RXF 393; read-out: pTGI (converted)): 2.82 µM | GI50 (SNB-75): 1.51 µM | CC50 (SNB-75; [4]): 7.94 µM | TGI (SNB-75; read-out: pTGI (converted)): 3.47 µM | GI50 (Hs-578T): 2.04 µM | CC50 (Hs-578T; [4]): > 100 µM | TGI (Hs-578T; read-out: pTGI (converted)): 5.89 µM | GI50 (U-251): 1.82 µM | CC50 (U-251; [4]): 50.1 µM | TGI (U-251; read-out: pTGI (converted)): 7.24 µM | GI50 (NCI-H322M): 2.19 µM | CC50 (NCI-H322M; [4]): > 100 µM | TGI (NCI-H322M; read-out: pTGI (converted)): 5.89 µM | GI50 (ACHN; read-out: GI50): 0.89 µM | CC50 (ACHN; read-out: LC50 (the source's name)): > 100 µM | GI50 (ACHN; read-out: pGI50 (converted)): 0.891 µM | CC50 (ACHN; [4]): > 100 µM | TGI (ACHN; read-out: pTGI (converted)): 3.89 µM | GI50 (NCI-H522): 1.62 µM | CC50 (NCI-H522; [4]): 8.71 µM | TGI (NCI-H522; read-out: pTGI (converted)): 3.72 µM | inhibition of growth at 10 µM (IGROV-1): 100% | GI50 (RPMI-8226): 1.95 µM | CC50 (RPMI-8226; [4]): > 100 µM | TGI (RPMI-8226; read-out: pTGI (converted)): 6.61 µM | GI50 (SN12C): 1.82 µM | CC50 (SN12C; [4]): 41.7 µM | TGI (SN12C; read-out: pTGI (converted)): 7.08 µM | GI50 (MDA-MB-468): 1.82 µM | CC50 (MDA-MB-468; [4]): 7.94 µM | TGI (MDA-MB-468; read-out: pTGI (converted)): 3.8 µM | GI50 (BT-549): 1.91 µM | CC50 (BT-549; [4]): > 100 µM | TGI (BT-549; read-out: pTGI (converted)): 6.03 µM | GI50 (DU-145): 1.35 µM | CC50 (DU-145; [4]): > 100 µM | TGI (DU-145; read-out: pTGI (converted)): 5.89 µM | inhibition of growth at 10 µM (UO-31): 100% | GI50 (HCC 2998): 1.51 µM | CC50 (HCC 2998; [4]): 7.76 µM | TGI (HCC 2998; read-out: pTGI (converted)): 3.47 µM | GI50 (SF-295): 2.88 µM | CC50 (SF-295; [4]): > 100 µM | TGI (SF-295; read-out: pTGI (converted)): 9.55 µM | GI50 (K562): 2.19 µM | CC50 (K562; [4]): > 100 µM | TGI (K562; read-out: pTGI): > 100 µM | GI50 (SK-MEL-2): 1.95 µM | CC50 (SK-MEL-2; [4]): 7.41 µM | TGI (SK-MEL-2; read-out: pTGI (converted)): 3.8 µM | GI50 (COLO 205): 1.48 µM | CC50 (COLO 205; [4]): 33.9 µM | TGI (COLO 205; read-out: pTGI (converted)): 4.17 µM | inhibition of growth at 10 µM (MCF7): 100% | GI50 (A498): 2.63 µM | CC50 (A498; [4]): 27.5 µM | TGI (A498; read-out: pTGI (converted)): 6.61 µM | GI50 (M14): 1.66 µM | CC50 (M14; [4]): 9.12 µM | TGI (M14; read-out: pTGI (converted)): 3.89 µM | inhibition of growth at 10 µM (MOLT-4): 99% | GI50 (T47D): 2.51 µM | CC50 (T47D; [4]): > 100 µM | TGI (T47D; read-out: pTGI (converted)): 8.32 µM | GI50 (OVCAR-4): 2.4 µM | CC50 (OVCAR-4; [4]): > 100 µM | TGI (OVCAR-4; read-out: pTGI (converted)): 7.94 µM | GI50 (SF-539): 1.78 µM | CC50 (SF-539; [4]): 7.76 µM | TGI (SF-539; read-out: pTGI (converted)): 3.72 µM | inhibition (C6 [2]): Active | Activity (C6 [3]): inactive | GI50 (LOX IMVI; read-out: pGI50 (converted)): 1.51 µM | CC50 (LOX IMVI; [4]): 6.61 µM | TGI (LOX IMVI; read-out: pTGI (converted)): 3.16 µM
